From ChEMBL document CHEMBL4411306, “High-throughput screening of novel pyruvate dehydrogenase kinases inhibitors and biological evaluation of their in vitro and in vivo antiproliferative activity” (Eur J Med Chem, 2019)
Active and inactive are the calls of the source. The rule behind the calls is not given here.

What was measured:
[1] = Inhibition of porcine PDK assessed as activation of pyruvate dehydrogenase complex measured after 3 mins; design: species or system Sus scrofa
[2] = biological target: T1, [Pyruvate dehydrogenase (acetyl-transferring)] kinase isozyme 2, mitochondrial (Homo sapiens, UniProt Q15119); experiment: Inhibition of E2-activated human PDHK2
[3] = Permeability across human Caco2 cells by liquid scintillation counting method; assay type: ADME, cell-based; conditions: caco-2
NCI-H1975 [4] = experiment: Inhibition of PDK in human NCI-H1975 cells assessed as reduction in PDH phosphorylation at 10 uM after 12 hrs by Western blot analysis; assay type: cell-based
[5] = biological target: T1, [Pyruvate dehydrogenase (acetyl-transferring)] kinase isozyme 2, mitochondrial; experiment: Inhibition of recombinant human His-tagged PDK2 expressed in Escherichia coli using PDH E1 as substrate measured after 30 mins by Kinase-Glo luminescence assay
[6] = biological target: [Pyruvate dehydrogenase (acetyl-transferring)] kinase isozyme 3, mitochondrial (Homo sapiens, UniProt Q15120); experiment: Inhibition of recombinant human His-tagged PDK3 expressed in Escherichia coli using PDH E1 as substrate measured after 30 mins by Kinase-Glo luminescence assay
HepG2 = experiment: Antiproliferative activity against human HepG2 cells assessed as reduction in cell viability after 72 hrs by MTT assay; assay type: functional
[7] = biological target: T2, [Pyruvate dehydrogenase (acetyl-transferring)] kinase isozyme 1, mitochondrial (Homo sapiens, UniProt Q15118); experiment: Binding affinity to recombinant human His-tagged PDK1 expressed in Escherichia coli by isothermal calorimetry
Heat shock protein HSP90 = Heat shock protein HSP90 (Homo sapiens, UniProt P07900+P08238); experiment: Inhibition of human HSP90 measured after 30 mins by fluorescence polarization assay; assay type: protein assay
NCI-H1975 [8] = experiment: Antiproliferative activity against human NCI-H1975 cells assessed as reduction in cell viability after 72 hrs by MTT assay; assay type: functional
MCF7 = experiment: Antiproliferative activity against human MCF7 cells assessed as reduction in cell viability after 72 hrs by MTT assay; assay type: functional
HCT-116 = experiment: Antiproliferative activity against human HCT116 cells assessed as reduction in cell viability after 72 hrs by MTT assay; assay type: functional
A549 = experiment: Antiproliferative activity against human A549 cells assessed as reduction in cell viability after 72 hrs by MTT assay; assay type: functional
NCI-H1650 = experiment: Antiproliferative activity against human NCI-H1650 cells assessed as reduction in cell viability after 72 hrs by MTT assay; assay type: functional
[9] = biological target: [Pyruvate dehydrogenase (acetyl-transferring)] kinase isozyme 4, mitochondrial (Homo sapiens, UniProt Q16654); experiment: Inhibition of recombinant human His-tagged PDK4 expressed in Escherichia coli using PDH E1 as substrate measured after 30 mins by Kinase-Glo luminescence assay
[10] = biological target: T2, [Pyruvate dehydrogenase (acetyl-transferring)] kinase isozyme 1, mitochondrial; experiment: Inhibition of recombinant human His-tagged PDK1 expressed in Escherichia coli using PDH E1 as substrate measured after 30 mins by Kinase-Glo luminescence assay
[11] = Antiproliferative activity against human BEAS2B cells assessed as reduction in cell viability after 72 hrs by MTT assay; assay type: cell-based; conditions: BEAS-2B cells, read-out: GC50
A-375 = experiment: Antiproliferative activity against human A375 cells assessed as reduction in cell viability after 72 hrs by MTT assay; assay type: functional
Sus scrofa = species: Sus scrofa; experiment: Inhibition of porcine PDK assessed as activation of pyruvate dehydrogenase complex at 10 mM measured after 3 mins relative to control
[12] = biological target: T2, [Pyruvate dehydrogenase (acetyl-transferring)] kinase isozyme 1, mitochondrial; conditions: NCI-H1975, 10 mM
Description: Inhibition of PDK1 in human NCI-H1975 cells assessed as switch of pyruvate metabolism from lactate production to oxidative phosphorylation by measuring by measuring reduction in lactate formation at 10 mM measured after 4 hrs

[13] = biological target: T2, [Pyruvate dehydrogenase (acetyl-transferring)] kinase isozyme 1, mitochondrial; conditions: NCI-H1975, 10 mM; remark: listed apart in the source
Description: Inhibition of PDK1 in human NCI-H1975 cells assessed as switch of pyruvate metabolism from lactate production to oxidative phosphorylation by measuring increase in oxygen consumption rates at 10 mM measured after 4 hrs by XFe24 extracellular flux analyzer based assay

NCI-H1975 [14] = experiment: Inhibition of PDK in human NCI-H1975 cells assessed as reduction in PDH phosphorylation at 10 mM after 12 hrs by Western blot analysis; assay type: cell-based
NCI-H1975 [15] = experiment: Inhibition of PDK in human NCI-H1975 cells assessed as reduction in PDH phosphorylation at Ser293 residue at 10 mM by ELISA; assay type: cell-based
[16] = biological target: T2, [Pyruvate dehydrogenase (acetyl-transferring)] kinase isozyme 1, mitochondrial; conditions: NCI-H1975, 10 mM; remark: listed apart in the source
Description: Inhibition of PDK1 in human NCI-H1975 cells assessed as switch of pyruvate metabolism from lactate production to oxidative phosphorylation by measuring decrease in extracellular acidification rate at 10 mM measured after 4 hrs by XFe24 extracellular flux analyzer based assay

T2 sequence (Q15118 whole entry): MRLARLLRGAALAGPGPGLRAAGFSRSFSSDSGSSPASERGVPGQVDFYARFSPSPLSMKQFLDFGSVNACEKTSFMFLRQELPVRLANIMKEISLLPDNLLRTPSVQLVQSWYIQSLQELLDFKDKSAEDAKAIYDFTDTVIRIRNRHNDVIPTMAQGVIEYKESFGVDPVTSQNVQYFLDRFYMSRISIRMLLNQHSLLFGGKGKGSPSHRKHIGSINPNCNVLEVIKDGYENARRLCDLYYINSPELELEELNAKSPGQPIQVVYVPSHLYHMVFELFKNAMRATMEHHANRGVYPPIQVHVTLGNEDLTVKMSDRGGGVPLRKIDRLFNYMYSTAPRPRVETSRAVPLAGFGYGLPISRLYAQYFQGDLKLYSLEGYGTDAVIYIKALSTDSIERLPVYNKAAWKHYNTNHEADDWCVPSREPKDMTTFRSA
Chain of [Pyruvate dehydrogenase (acetyl-transferring)] kinase isozyme 4, mitochondrial (Q16654 whole entry): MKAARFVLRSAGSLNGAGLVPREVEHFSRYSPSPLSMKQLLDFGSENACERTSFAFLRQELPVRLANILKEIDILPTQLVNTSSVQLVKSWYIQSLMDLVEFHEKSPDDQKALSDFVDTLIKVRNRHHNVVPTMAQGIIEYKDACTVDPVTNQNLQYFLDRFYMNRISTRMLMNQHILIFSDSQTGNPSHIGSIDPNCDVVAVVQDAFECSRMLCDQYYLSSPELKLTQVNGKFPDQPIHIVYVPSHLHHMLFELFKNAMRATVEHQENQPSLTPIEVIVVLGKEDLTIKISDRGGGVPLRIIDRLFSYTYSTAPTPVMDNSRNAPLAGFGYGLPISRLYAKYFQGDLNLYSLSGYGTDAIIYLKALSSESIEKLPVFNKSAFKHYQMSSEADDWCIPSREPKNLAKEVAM
Chain of [Pyruvate dehydrogenase (acetyl-transferring)] kinase isozyme 3, mitochondrial (Q15120 whole entry): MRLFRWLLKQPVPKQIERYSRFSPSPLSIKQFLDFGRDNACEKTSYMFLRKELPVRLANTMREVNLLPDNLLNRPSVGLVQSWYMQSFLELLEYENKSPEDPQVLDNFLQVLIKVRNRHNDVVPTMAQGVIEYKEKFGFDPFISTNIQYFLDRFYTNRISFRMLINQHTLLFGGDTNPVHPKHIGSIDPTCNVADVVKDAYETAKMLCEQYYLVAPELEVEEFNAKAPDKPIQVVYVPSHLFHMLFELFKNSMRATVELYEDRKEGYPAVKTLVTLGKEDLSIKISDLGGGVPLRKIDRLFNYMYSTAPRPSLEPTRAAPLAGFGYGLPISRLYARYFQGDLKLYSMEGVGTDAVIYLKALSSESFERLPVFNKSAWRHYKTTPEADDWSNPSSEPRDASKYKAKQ

Work on Cc1cnc(Cl)nc1-c1ccc(N(Cc2ccc(CNC(=O)C(F)F)cc2)C(=O)c2ccc(O)cc2O)cc1 yielded an EC50 [1] of 0.12 µM.
In the case of C[C@@H]1CN(C(=O)[C@](C)(O)C(F)(F)F)[C@@H](C)CN1C(=O)c1ccc(C#N)cc1, the IC50 [2] is reported as 0.0078 µM.
COc1cccc2c1C(=O)c1c(O)c3c(c(O)c1C2=O)C[C@@](O)(C(=O)CO)C[C@@H]3O[C@H]1C[C@H](N)[C@H](O)[C@H](C)O1 [DOXORUBICIN] gave a Papp [3] of 0.21 ×10⁻⁶ cm/s.
In the case of O=C(Nc1ccc(Cl)cc1C(=O)N1CCCC[C@@H]1CCO)c1ccc(Cl)cc1Cl, the “reduction in PDH phosphorylation (qualitative)” value (shortened to “reduction in PDH phosphorylation”) (NCI-H1975 [4]) is reported as “Active” and the EC50 [1] is reported as 8.4 µM.
For CC(C)CNS(=O)(=O)c1ccc(OCC(=O)N(Cc2ccccc2)Cc2ccccc2)cc1, the IC50 [5] was 5.9 µM, the IC50 [6] was 4.9 µM and the “reduction in PDH phosphorylation” value (NCI-H1975 [4]) was “Active”. For the same compound, the Activity (HepG2) was “Dose-dependent effect”, the GC50 (HepG2) was 18.2 µM and the Kd [7] was 1.49 µM. The IC50 (Heat shock protein HSP90) was 3.58 µM, the Papp [3] was 1.14 ×10⁻⁶ cm/s and the Activity (NCI-H1975 [8]) was “Dose-dependent effect”. For the same compound, the GC50 (NCI-H1975 [8]) was greater than 20 µM, the Activity (MCF7) was “Dose-dependent effect” and the GC50 (MCF7) was greater than 20 µM. For the same compound, the Activity (HCT-116) was “Dose-dependent effect”, the GC50 (HCT-116) was greater than 20 µM and the Activity (A549) was “Dose-dependent effect”. The GC50 (A549) was 17.5 µM, the Activity (NCI-H1650) was “Dose-dependent effect” and the GC50 (NCI-H1650) was greater than 20 µM. For the same compound, the EC50 [1] was 1.4 µM, the IC50 [9] was 6.9 µM and the IC50 [10] was 0.89 µM. The GI50 at 72 h [11] was greater than 20 µM, the Activity (A-375) was “Dose-dependent effect” and the GC50 (A-375) was 12.3 µM.
With O=C(c1ccccc1)C(Cl)Cl the “reduction in PDH phosphorylation” value (NCI-H1975 [4]) was “Active” and the EC50 [1] was greater than 1000 µM.
Compound CC(C)Cc1ccc(C(C)C(=O)O)cc1 (centres undefined) [IBUPROFEN] has a Papp [3] of 47.2 ×10⁻⁶ cm/s.
In the case of CCOc1ccc([C@@H]2C(C(=O)Nc3cccnc3)=C(C)Nc3nc(CCCO)nn32)cc1, the “reduction in PDH phosphorylation” value (NCI-H1975 [4]) is reported as “Active” and the EC50 [1] is reported as 5.9 µM.
For CC(=O)N[C@@H](Cc1c[nH]c2ccccc12)C(=O)NCCOc1ccc(C2CCCCC2)cc1, the “reduction in PDH phosphorylation” value (NCI-H1975 [4]) was “Active” and the EC50 [1] was 3.5 µM.
In the case of COc1ccc(-c2nnn(CC(=O)Nc3cccc(F)c3)n2)cc1, the “reduction in PDH phosphorylation” value (NCI-H1975 [4]) is reported as “Active” and the EC50 [1] is reported as 6.9 µM.
For Cc1ccc(NC(=O)CSc2c[nH]c(-c3ccccc3O)n2)cc1, the “reduction in PDH phosphorylation” value (NCI-H1975 [4]) was “Active” and the EC50 [1] was 4.6 µM.
In the case of CN(C)C(=O)c1ccc(S(=O)(=O)c2ccc(NC(=O)[C@@](C)(O)C(F)(F)F)c(Cl)c2)cc1, the IC50 [2] is reported as 0.08 µM.
For COc1ccc(C(=O)CSc2nnc(CNc3ccccc3OC)n2-c2ccccc2)cc1, the “reduction in PDH phosphorylation” value (NCI-H1975 [4]) was “Active” and the EC50 [1] was 5.2 µM.
In the case of C[C@H]1CCc2c(sc3nc(SCCN4CCCC4)n(N)c(=O)c23)C1, the IC50 [5] is reported as 10.5 µM, the IC50 [6] is reported as 8.3 µM and the “reduction in PDH phosphorylation” value (NCI-H1975 [4]) is reported as “Active”. For the same compound, the Activity (HepG2) was “Dose-dependent effect”, the GC50 (HepG2) was greater than 20 µM and the Kd [7] was 3.5 µM. For the same compound, the IC50 (Heat shock protein HSP90) was 2.7 µM, the Papp [3] was 0.96 ×10⁻⁶ cm/s and the Activity (NCI-H1975 [8]) was “Dose-dependent effect”. For the same compound, the GC50 (NCI-H1975 [8]) was 15.6 µM, the Activity (MCF7) was “Dose-dependent effect” and the GC50 (MCF7) was greater than 20 µM. For the same compound, the Activity (HCT-116) was “Dose-dependent effect”, the GC50 (HCT-116) was greater than 20 µM and the Activity (A549) was “Dose-dependent effect”. The GC50 (A549) was greater than 20 µM, the Activity (NCI-H1650) was “Dose-dependent effect” and the GC50 (NCI-H1650) was 16.3 µM. For the same compound, the EC50 [1] was 1.6 µM, the IC50 [9] was 14.7 µM and the IC50 [10] was 5.9 µM. The GI50 at 72 h [11] was greater than 20 µM, the Activity (A-375) was “Dose-dependent effect” and the GC50 (A-375) was greater than 20 µM.
In the case of O=C(O)C(Cl)Cl [DICHLOROACETIC ACID], the inhibition (Sus scrofa) is reported as 54.8%, the inhibition [12] is reported as “Active” and the inhibition [13] is reported as “Active”. The EC50 [1] was greater than 100 µM, the inhibition (NCI-H1975 [14]) was “Active” and the inhibition (NCI-H1975 [15]) was “Active”. For the same compound, the inhibition [16] was “Active”.
